Each block holds one molecule with its values, some of them ahead of it.
Experiments:
ECF–FolT2 [1] = molecular target: T1, ECF–FolT2 (Lactobacillus delbrueckii, UniProt Q1GBI9+Q1GBJ0); assay: crystal structure […] Å; format: binding; conditions: 10 mM MgCl2; one AMP-PNP bound to each of EcfA and EcfA'; ATPase dimer open
T1 construct: gene ecfA1; full ECF complex EcfA-EcfA'-EcfT-FolT2; N-terminal His10-tag and TEV site on EcfA, C-terminal STREPII tag on FolT2; expressed in E. coli MC1061; nucleotide sites on EcfA and EcfA'; with Energy-coupling factor transporter transmembrane protein EcfT; Folate family ECF transporter S component FolT2
T1 sequence (Q1GBI8 entry or part of it): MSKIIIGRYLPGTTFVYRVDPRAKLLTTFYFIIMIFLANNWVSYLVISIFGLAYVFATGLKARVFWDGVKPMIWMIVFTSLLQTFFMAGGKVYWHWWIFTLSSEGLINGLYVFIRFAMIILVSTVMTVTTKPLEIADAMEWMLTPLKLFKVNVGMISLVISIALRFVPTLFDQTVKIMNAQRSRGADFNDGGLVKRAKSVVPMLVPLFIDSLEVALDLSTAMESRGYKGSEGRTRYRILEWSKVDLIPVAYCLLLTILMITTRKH
T1 sequence (Q1GBJ0 whole entry): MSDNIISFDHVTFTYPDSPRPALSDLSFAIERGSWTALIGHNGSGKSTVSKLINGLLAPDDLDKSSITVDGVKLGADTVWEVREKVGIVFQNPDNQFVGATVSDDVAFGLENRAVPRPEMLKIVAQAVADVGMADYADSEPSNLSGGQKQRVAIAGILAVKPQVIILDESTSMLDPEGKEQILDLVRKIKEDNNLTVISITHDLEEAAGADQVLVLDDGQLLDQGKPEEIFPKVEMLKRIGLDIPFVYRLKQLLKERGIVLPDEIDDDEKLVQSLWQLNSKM
T1 sequence (Q1GBI9 whole entry): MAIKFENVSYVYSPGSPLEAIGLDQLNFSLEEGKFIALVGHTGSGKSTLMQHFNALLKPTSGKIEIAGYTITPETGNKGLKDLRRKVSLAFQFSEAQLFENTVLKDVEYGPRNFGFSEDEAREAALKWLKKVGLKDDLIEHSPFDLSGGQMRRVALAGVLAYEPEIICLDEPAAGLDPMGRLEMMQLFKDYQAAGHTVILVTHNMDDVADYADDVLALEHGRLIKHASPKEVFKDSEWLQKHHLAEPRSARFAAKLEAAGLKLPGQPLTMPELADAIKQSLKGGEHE
T1 sequence (Q1G929 entry or part of it, further chain): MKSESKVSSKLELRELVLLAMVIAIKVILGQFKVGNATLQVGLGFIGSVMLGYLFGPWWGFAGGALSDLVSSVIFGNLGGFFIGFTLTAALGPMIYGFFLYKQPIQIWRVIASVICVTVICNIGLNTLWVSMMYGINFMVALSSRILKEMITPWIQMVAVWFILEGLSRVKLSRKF

ECF–FolT2 [2] = molecular target: T1, ECF–FolT2; assay: coupled-enzyme ATPase assay in proteoliposomes; format: biochemical; conditions: 1 mM MgATP, 50 mM KPi pH 7.5, 200 mM NaCl, 30 °C
ECF–FolT2 [3] = molecular target: T2, ECF–FolT2 (Lactobacillus delbrueckii, UniProt Q1G929); assay: radiolabelled folate uptake and efflux in proteoliposomes; format: biochemical; conditions: 5 mM luminal MgATP, 100 nM folate, pH 7.5, 25 °C; labelled compound
T2 construct: gene Ldb1625; His10-EcfA, FolT2-STREPII; expressed in E. coli MC1061; reconstituted in proteoliposomes; Energy-coupling factor transporter transmembrane protein EcfT
T2 sequence (Q1GBI8 entry or part of it): as the sequence (Q1GBI8 entry or part of it) above
T2 sequence (Q1GBJ0 whole entry, further chain): as the sequence (Q1GBJ0 whole entry) above
T2 sequence (Q1GBI9 whole entry, further chain): as the sequence (Q1GBI9 whole entry) above
T2 sequence (Q1G929 entry or part of it): as the sequence (Q1G929 entry or part of it, further chain) above

FolT2 = molecular target: T3, FolT2 (Lactobacillus delbrueckii, UniProt Q1G929); assay: intrinsic fluorescence titration; format: binding; conditions: read-out: dissociation constant
T3 construct: gene Ldb1625; solitary S-component, N-terminal His8-tag, expressed in Lactococcus lactis NZ9000, purified in n-nonyl-beta-D-glucopyranoside
T3 sequence (Q1G929 entry or part of it): as the sequence (Q1G929 entry or part of it, further chain) above

ECF–FolT1 = molecular target: T4, ECF–FolT1 (Lactobacillus delbrueckii, UniProt Q1G930); assay: radiolabelled folate uptake in proteoliposomes; format: biochemical; conditions: luminal MgATP; labelled compound
T4 construct: gene Ldb1624; full ECF complex EcfA-EcfA'-EcfT-FolT1; His10-EcfA, FolT1-STREPII; expressed in E. coli MC1061; reconstituted in proteoliposomes; Energy-coupling factor transporter transmembrane protein EcfT
T4 sequence (Q1GBJ0 whole entry): as the sequence (Q1GBJ0 whole entry) above
T4 sequence (Q1G930 entry or part of it): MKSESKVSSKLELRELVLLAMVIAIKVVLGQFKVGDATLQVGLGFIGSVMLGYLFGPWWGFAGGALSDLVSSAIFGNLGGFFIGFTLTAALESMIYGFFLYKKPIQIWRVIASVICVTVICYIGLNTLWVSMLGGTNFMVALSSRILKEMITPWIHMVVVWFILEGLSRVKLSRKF
T4 sequence (Q1GBI9 whole entry, further chain): as the sequence (Q1GBI9 whole entry) above
T4 sequence (Q1GBI8 entry or part of it, further chain): as the sequence (Q1GBI8 entry or part of it) above

FolT1 [4] = molecular target: T5, FolT1 (Lactobacillus delbrueckii, UniProt Q1G930); assay: intrinsic fluorescence titration; crystal structure […] Å; format: binding; conditions: read-out: dissociation constant
T5 construct: gene Ldb1624; solitary S-component, N-terminal His8-tag, expressed in Lactococcus lactis NZ9000, purified in n-nonyl-beta-D-glucopyranoside
T5 sequence (Q1G930 entry or part of it): as the sequence (Q1G930 entry or part of it) above

FolT1 [5] = molecular target: T6, FolT1 (Lactobacillus delbrueckii, UniProt Q1G930, Y122N); assay: intrinsic fluorescence titration; format: binding; conditions: read-out: dissociation constant
T6 construct: gene Ldb1624; solitary S-component, N-terminal His8-tag, expressed in Lactococcus lactis NZ9000, purified in n-nonyl-beta-D-glucopyranoside
T6 sequence (Q1G930 entry or part of it Y122N): as the sequence (Q1G930 entry or part of it) above, with Y122N counted along it

Compound: Nc1ncnc2c1ncn2[C@@H]1O[C@H](COP(=O)(O)OP(=O)(O)NP(=O)(O)O)[C@@H](O)[C@H]1O [AMP–PNP]
- crystal structure 3.3 Å (ECF–FolT2 [1]): EcfA and EcfA′ each bind a molecule of the nucleotide

Compound: Nc1ncnc2c1ncn2[C@@H]1O[C@H](COP(=O)(O)OP(=O)(O)OP(=O)(O)O)[C@@H](O)[C@H]1O [ATP]
- coupled-enzyme ATPase assay in proteoliposomes (ECF–FolT2 [2]): we also measured the ATPase activity of ECF–FolT2 in the proteoliposomes

- Kd (FolT2): 3.1 ± 1.4 nM
- Kd (FolT1 [4]): 1 ± 0.24 nM
- Kd (FolT1 [5]): 2.5 ± 1.2 nM
Compound: Nc1nc2ncc(CNc3ccc(C(=O)N[C@@H](CCC(=O)O)C(=O)O)cc3)nc2c(=O)[nH]1 [folate]
- radiolabelled folate uptake and efflux in proteoliposomes (ECF–FolT2 [3]): ECF transporters indeed translocate their substrates across the membrane
- radiolabelled folate uptake in proteoliposomes (ECF–FolT1): Both ECF transporters mediated association of radiolabelled folate with the proteoliposomes

— PMC4820897, “Structural insight in the toppling mechanism of an energy-coupling factor transporter” (Nature Communications, 2016)
